The results in this text go back to patent EP1680415B1, “PYRROLIDINYL UREA DERIVATIVES AS ANGIOGENESIS INHIBITORS” (ABBOTT LABORATORIES, priority 2003, dated 2005).

The first test concerns HMVEC. The test can be described thus: human microvascular endothelial (HMVEC) migration assay. The class given is cell-based. The conditions noted are these: Homo sapiens; Inhibition of HMVEC migration; 0.1 nM; activators 15 ng/mL bFGF/VEGF; 4 hours at 37 °C; compared to a positive control. Here is the method:
The human microvascular endothelial (HMVEC) migration assay was run according to the procedure of S. S. Tolsma, O. V. Volpert, D. J. Good, W. F. Frazier, P. J. Polverini and N. Bouck, J. Cell Biol. 122, 497-511 (1993).
The HMVEC migration assay was carried out using Human Microvascular Endothelial Cells-Dermal (single donor) and Human Microvascular Endothelial Cells, (neonatal). The BCE or HMVEC cells were starved overnight in DME containing 0.01% bovine serum albumin (BSA). Cells were then harvested with trypsin and resuspended in DME with 0.01 % BSA at a concentration of 1.5 X 10^6 cells per mL. Cells were added to the bottom of a 48 well modified Boyden chamber (Nucleopore Corporation, Cabin John, MD). The chamber was assembled and inverted, and cells were allowed to attach for 2 hours at 37 °C to polycarbonate chemotaxis membranes (5 µm pore size) that had been soaked in 0.01 % gelatin overnight and dried. The chamber was then reinverted, and test substances (total volume of 50 µL), including activators, 15 ng/mL bFGF/VEGF, were added to the wells of the upper chamber. The apparatus was incubated for 4 hours at 37 °C. Membranes were recovered, fixed and stained (Diff Quick, Fisher Scientific) and the number of cells that had migrated to the upper chamber per 3 high power fields counted. Background migration to DME + […] was subtracted and the data reported as the number of cells migrated per 10 high power fields (400X) or, when results from multiple experiments were combined, as the percent inhibition of migration compared to a positive control.
The inhibition is the percentage by which the read-out fell short of the control. Lower therefore signals a weak effect. For the molecule `Cc1ccc(C(=O)N2CC[C@@H](NC(=O)NCc3ccccc3)C2)cn1` [Example 1, N-benzyl-N'-{(3R)-1-[(6-methylpyridin-3-yl)carbonyl]pyrrolidin-3-yl}urea], the inhibition at 0.0001 µM came out at 80%.

As to `Cc1ccc(C(=O)N2CC[C@@H](NC(=O)N3CCCC3)C2)cn1` [Example 2, N-{(3R)-1-[(6-methyl-3-pyridinyl)carbonyl]-3-pyrrolidinyl}-1-pyrrolidinecarboxamide], the inhibition at 0.0001 µM is 98%. The molecule `Cc1ccc(C(=O)N2CC[C@@H](NC(=O)NCCCN3CCOCC3)C2)cn1` [Example 3, N-{(3R)-1-[(6-methyl-3-pyridinyl)carbonyl]-3-pyrrolidinyl}-N'-[3-(4-morpholinyl)propyl]urea] returned an inhibition at 0.0001 µM of 60%. In turn, `Cc1ccc(C(=O)N2CC[C@@H](NC(=O)NCCc3c[nH]cn3)C2)cn1` [Example 4, N-[2-(1H-imidazol-4-yl)ethyl]-N'-{(3R)-1-[(6-methyl-3-pyridinyl)carbonyl]-3-pyrrolidinyl}urea] showed an inhibition at 0.0001 µM of 69%.

`Cc1ccc(C(=O)N2CC[C@@H](NC(=O)NCCc3c[nH]c4ccccc34)C2)cn1` [Example 5, N-[2-(1H-indol-3-yl)ethyl]-N'-{(3R)-1-[(6-methyl-3-pyridinyl)carbonyl]-3-pyrrolidinyl}urea]: the inhibition at 0.0001 µM was 59%. In turn, `CCNC(=O)N[C@@H]1CCN(C(=O)c2ccc(C)nc2)C1` [Example 6, N-ethyl-N'-{(3R)-1-[(6-methyl-3-pyridinyl)carbonyl]-3-pyrrolidinyl}urea] came in with an inhibition at 0.0001 µM of 70%.

As for `Cc1ccc(C(=O)N2CC[C@@H](NC(=O)NCC(C)C)C2)cn1` [Example 7, N-isobutyl-N'-{(3R)-1-[(6-methyl-3-pyridinyl)carbonyl]-3-pyrrolidinyl}urea], the inhibition at 0.0001 µM is 90%.

As for `CCCC(C)NC(=O)N[C@@H]1CCN(C(=O)c2ccc(C)nc2)C1` (stereo partly drawn) [Example 8, N-(1-methylbutyl)-N'-{(3R)-1-[(6-methyl-3-pyridinyl)carbonyl]-3-pyrrolidinyl}urea], the inhibition at 0.0001 µM turned out to be 56%.

The molecule `Cc1ccc(C(=O)N2CC[C@@H](NC(=O)NCC(C)(C)C)C2)cn1` [Example 9, N-{(3R)-1-[(6-methyl-3-pyridinyl)carbonyl]-3-pyrrolidinyl}-N'-neopentylurea] registered an inhibition at 0.0001 µM of 71%. In turn, `Cc1ccc(C(=O)N2CC[C@@H](NC(=O)NCCC(C)(C)C)C2)cn1` [Example 10, N-(3,3-dimethylbutyl)-N'-{(3R)-1-[(6-methyl-3-pyridinyl)carbonyl]-3-pyrrolidinyl}urea] gave an inhibition at 0.0001 µM of 65%. With `Cc1ccc(C(=O)N2CC[C@@H](NC(=O)NCC(F)(F)F)C2)cn1` [Example 11, N-{(3R)-1-[(6-methyl-3-pyridinyl)carbonyl]-3-pyrrolidinyl}-N'-(2,2,2-trifluoroethyl)urea], the inhibition at 0.0001 µM amounted to 81%. In the case of `COCC(C)NC(=O)N[C@@H]1CCN(C(=O)c2ccc(C)nc2)C1` (stereo partly drawn) [Example 12, N-(2-methoxy-1-methylethyl)-N'-{(3R)-1-[(6-methyl-3-pyridinyl)carbonyl]-3-pyrrolidinyl}urea], the inhibition at 0.0001 µM was 77%. For `CCOCCNC(=O)N[C@@H]1CCN(C(=O)c2ccc(C)nc2)C1` [Example 13, N-(2-ethoxyethyl)-N'-{(3R)-1-[(6-methyl-3-pyridinyl)carbonyl]-3-pyrrolidinyl}urea], the inhibition at 0.0001 µM was 83%. The same measure, in the same setting: as for `Cc1ccc(C(=O)N2CC[C@@H](NC(=O)NCC3CCOC3)C2)cn1` (stereo partly drawn) [Example 14, N-{(3R)-1-[(6-methyl-3-pyridinyl)carbonyl]-3-pyrrolidinyl}-N'-(tetrahydro-3-furanylmethyl)urea], the figure is 57%. Regarding `Cc1ccc(C(=O)N2CC[C@@H](NC(=O)NCC#N)C2)cn1` [Example 15, N-(cyanomethyl)-N'-{(3R)-1-[(6-methyl-3-pyridinyl)carbonyl]-3-pyrrolidinyl}urea], at 0.0001 µM the inhibition was 64%. For the molecule `C#CCNC(=O)N[C@@H]1CCN(C(=O)c2ccc(C)nc2)C1` [Example 16, N-{(3R)-1-[(6-methyl-3-pyridinyl)carbonyl]-3-pyrrolidinyl}-N'-2-propynylurea], 0.0001 µM produced 72% inhibition.

`Cc1ccc(C(=O)N2CC[C@@H](NC(=O)NCC3CC3)C2)cn1` [Example 17, N-(cyclopropylmethyl)-N'-{(3R)-1-[(6-methyl-3-pyridinyl)carbonyl]-3-pyrrolidinyl}urea] returned an inhibition at 0.0001 µM of 76%. The same measure, in the same setting: the value for `Cc1ccc(C(=O)N2CC[C@@H](NC(=O)NC3CCC3)C2)cn1` [Example 18, N-cyclobutyl-N'-{(3R)-1-[(6-methyl-3-pyridinyl)carbonyl]-3-pyrrolidinyl}urea] was 61%; that for `Cc1ccc(C(=O)N2CC[C@@H](NC(=O)NC3CCCCC3)C2)cn1` [Example 19, N-cyclohexyl-N'-{(3R)-1-[(6-methyl-3-pyridinyl)carbonyl]-3-pyrrolidinyl}urea] was 63%; that for `Cc1ccc(C(=O)N2CC[C@@H](NC(=O)NC3CCC(C)CC3)C2)cn1` (stereo partly drawn) [Example 20, N-(4-methylcyclohexyl)-N'-{(3R)-1-[(6-methyl-3-pyridinyl)carbonyl]-3-pyrrolidinyl}urea] was 67%.

For `Cc1ccc(C(=O)N2CC[C@@H](NC(=O)NCC3CCCCC3)C2)cn1` [Example 21, N-(cyclohexylmethyl)-N'-{(3R)-1-[(6-methyl-3-pyridinyl)carbonyl]-3-pyrrolidinyl}urea], the inhibition at 0.0001 µM stood at 90%. With `Cc1ccc(C(=O)N2CC[C@@H](NC(=O)NC3CCCCCC3)C2)cn1` [Example 22, N-cycloheptyl-N'-{(3R)-1-[(6-methyl-3-pyridinyl)carbonyl]-3-pyrrolidinyl}urea], the inhibition at 0.0001 µM stood at 70%. On the same count and under the same terms, as for `Cc1ccc(C(=O)N2CC[C@@H](NC(=O)N[C@H](CO)CC(C)C)C2)cn1` [Example 23, N-[(1S)-1-(hydroxymethyl)-3-methylbutyl]-N'-{(3R)-1-[(6-methyl-3-pyridinyl)carbonyl]-3-pyrrolidinyl}urea], the figure is 93%.

Consider `Cc1ccc(C(=O)N2CC[C@@H](NC(=O)N[C@@H](CO)CC(C)C)C2)cn1` [Example 24, N-[(1R)-1-(hydroxymethyl)-3-methylbutyl]-N'-{(3R)-1-[(6-methyl-3-pyridinyl)carbonyl]-3-pyrrolidinyl}urea], for which testing at 0.0001 µM gave an inhibition of 70%. The same measure, in the same setting: the value for `Cc1ccc(C(=O)N2CC[C@@H](NC(=O)N[C@H](CO)c3ccccc3)C2)cn1` [Example 25, N-[(1S)-2-hydroxy-1-phenylethyl]-N'-{(3R)-1-[(6-methyl-3-pyridinyl)carbonyl]-3-pyrrolidinyl}urea] was 80%; that for `Cc1ccc(C(=O)N2CC[C@@H](NC(=O)NCCCOC(C)C)C2)cn1` [Example 26, N-(3-isopropoxypropyl)-N'-{(3R)-1-[(6-methyl-3-pyridinyl)carbonyl]-3-pyrrolidinyl}urea] was 75%. `Cc1ccc(C(=O)N2CC[C@@H](NC(=O)NCC(O)CO)C2)cn1` (stereo partly drawn) [Example 27, N-(2,3-dihydroxypropyl)-N'-{(3R)-1-[(6-methyl-3-pyridinyl)carbonyl]-3-pyrrolidinyl}urea]: at 0.0001 µM the inhibition was 83%. On the same count and under the same terms, as for `COc1ccc2[nH]cc(CCNC(=O)N[C@@H]3CCN(C(=O)c4ccc(C)nc4)C3)c2c1` [Example 29, N-[2-(5-methoxy-1H-indol-3-yl)ethyl]-N'-{(3R)-1-[(6-methyl-3-pyridinyl)carbonyl]-3-pyrrolidinyl}urea], the figure is 92%; as for `Cc1ccc(C(=O)N2CC[C@@H](NC(=O)NCc3ccc(F)cc3F)C2)cn1` [Example 30, N-(2,4-difluorobenzyl)-N'-{(3R)-1-[(6-methyl-3-pyridinyl)carbonyl]-3-pyrrolidinyl}urea], 64%. `Cc1ccc(C(=O)N2CC[C@@H](NC(=O)NCCC(c3ccccc3)c3ccccc3)C2)cn1` [Example 31, N-(3,3-diphenylpropyl)-N'-{(3R)-1-[(6-methyl-3-pyridinyl)carbonyl]-3-pyrrolidinyl}urea] returned an inhibition at 0.0001 µM of 79%. Turning to `Cc1ccc(C(=O)N2CC[C@@H](NC(=O)N[C@@H](CO)c3ccccc3)C2)cn1` [Example 32, N-[(1R)-2-hydroxy-1-phenylethyl]-N'-{(3R)-1-[(6-methyl-3-pyridinyl)carbonyl]-3-pyrrolidinyl} urea], at 0.0001 µM the inhibition was 85%. Same read-out and setting: as for `Cc1ccc(C(=O)N2CC[C@@H](NC(=O)N[C@@H](C)c3ccccc3)C2)cn1` [Example 33, N-((3R)-1-[(6-methylpyridin-3-yl)carbonyl]pyrrolidin-3-yl)-N'-[(1S)-1-phenylethyl]urea], the figure is 85%.

The test is the same for the next values; noted with them: Inhibition of HMVEC migration; 0.01 nM; activators 15 ng/mL bFGF/VEGF; 4 hours at 37 °C; compared to a positive control.
As to “4-methyl-N-{(3R)-1-[(6-methylpyridin-3-yl)carbonyl]pyrrolidin-3-yl}-1,4-diazepane-1-carboxamide [Example 94]”, the “% Inhibition @ 0.01 nM” value was found to be 57%.
